Experimental findings from paper PMC8147984, “Effects of Sponge-Derived Alkaloids on Activities of the Bacterial α-D-Galactosidase and Human Cancer Cell α-N-Acetylgalactosaminidase” (Biomedicines, 2021) are described below.

Data set [1] addresses T1, α-D-galactosidase (α-PsGal) (Pseudoalteromonas sp. KMM 701, UniProt Q19AX0).
T1 sequence (Q19AX0 1-710): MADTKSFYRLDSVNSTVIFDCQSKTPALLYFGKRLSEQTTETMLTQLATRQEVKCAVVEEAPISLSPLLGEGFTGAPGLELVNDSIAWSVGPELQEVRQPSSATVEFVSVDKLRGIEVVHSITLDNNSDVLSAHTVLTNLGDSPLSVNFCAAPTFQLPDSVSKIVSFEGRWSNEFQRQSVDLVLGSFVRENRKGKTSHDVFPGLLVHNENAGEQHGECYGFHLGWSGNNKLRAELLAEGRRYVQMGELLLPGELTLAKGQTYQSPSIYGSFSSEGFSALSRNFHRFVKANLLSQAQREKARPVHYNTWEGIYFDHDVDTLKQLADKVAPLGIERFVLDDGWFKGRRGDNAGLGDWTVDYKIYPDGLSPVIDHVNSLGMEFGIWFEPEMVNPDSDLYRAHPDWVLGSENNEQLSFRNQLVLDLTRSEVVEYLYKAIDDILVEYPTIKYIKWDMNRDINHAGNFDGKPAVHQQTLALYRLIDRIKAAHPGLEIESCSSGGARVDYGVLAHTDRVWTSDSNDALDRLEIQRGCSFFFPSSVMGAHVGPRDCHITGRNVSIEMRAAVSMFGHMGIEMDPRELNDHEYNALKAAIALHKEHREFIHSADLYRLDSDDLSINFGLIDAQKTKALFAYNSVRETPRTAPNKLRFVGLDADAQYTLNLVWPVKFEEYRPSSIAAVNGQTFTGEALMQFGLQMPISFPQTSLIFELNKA
Put plainly: Kinetic studies of α-PsGal inactivation. Type of data set: biochemical. Conditions: pH 7.0, 20 °C; for Ki / kinact: Hill equation fit; for Ki: read-out: Ki, equilibrium inhibition constant; for kinact: read-out: kinact, inactivation rate constant (converted). The method, then: The kinetic parameters Ki and kinact were determined by classic methods. The inactivation of α-PsGal was monitored by incubation of the enzyme with different concentrations of alkaloids in […] sodium phosphate buffer, pH 7.0, at 20 °C in total volume of 30 µL (25 µL and 5 µL of α-PsGal and alkaloids, respectively), which were placed in cells of 96 cells plate. After preincubation of enzyme-inhibitor mixture for 0.5, 5, 10, 15, 20, 25, or 30 min […] the fraction of remaining enzyme activity was measured as a function of time by addition to the inactivation mixture 120 µL of a solution of pNP-α-Gal (3.3 mM). The pseudo-first-order rate constant of inactivation (kobs) was determined for each inactivator concentration as the slope of the v/v0 dependence on the incubation time in semilogarithmic coordinates. The Excel software was used for these calculations. The second order rate constants for the inactivation process were determined by fitting the dependences of the kobs values on the concentration of the inactivators to the Hill or Michaelis–Menten equations. An analysis of the graphs and the choice of models for calculation of inhibition constants (Ki, mM) and inactivation rate constants (kinact, min^–1) were performed with the Origin computer software.

The next data set deals with DLD-1 cells. Put plainly: MTS cytotoxic activity assay on DLD-1 cells. Type of data set: cell-based, human. How it is done:
DLD-1 cells (8 × 10^3/200 μL) were seeded in 96-well plates for 24 h at 37 °C in a 5% CO2 incubator. The cells were treated with compounds 1–9 at concentrations ranging from 0 to 20 μM for an additional 24 h. Subsequently, cells were incubated with 15 μL MTS (3-(4,5-dimethylthiazol-2-yl)-5-(3-carboxymethoxyphenyl)-2-(4-sulfophenyl)-2H-tetrazolium) reagent for 3 h, and the absorbance in each well was measured at 490/630 nm using a microplate reader “Power Wave XS” (Bio Tek, Winooski, VT, USA). All the experiments were repeated three times, and the mean absorbance values were calculated. The results are expressed in absorbance by the compound’s treatment compared to the non-treated cells (control 1) and the compounds in medium (control 2). All the experiments were made in triplicate.
For orientation: Tetrazolium dyes change colour on reduction, which living cells bring about.

The target in data set [2] is T1, α-D-galactosidase (α-PsGal). Put plainly: Irreversibility of α-PsGal inhibition (dialysis experiment). The data set is classed as biochemical. Conditions: dialysis against buffer for 60 h at 4 °C; activity did not recover. The method, then:
To determine the reversibility of the α-PsGal activity inhibition by alkaloids 2, 3, 8, and 9 15 µL of 0.625 mM aqueous solution of the compounds 2 and 3 or 6 µL of 2.5 mM ethanol solution of the compound 8 and 9 were added to 75 µL of the enzyme solution in 0.05 M sodium phosphate buffer (pH 7.0). After 30 min of the mixture incubation the aliquot of 30 µL was taken and 120 µL of 3.3 mM pNPG solution were added to initiate the reaction; the reaction was stopped by addition of 150 µL of 1M Na2CO3. The α-D-galactosidase activity was determined, as described above. The remaining reaction mixture was dialyzed against 1 L of 0.02 M sodium phosphate buffer (pH 7.0) for 60 h at 4 °C. The buffer was changed 3 times during the dialysis. The enzyme activity was determined, as described above. A sample of α-PsGal treated with H2O or EtOH in the absence of the inhibitor (75 µL of the enzyme solution and 15 µL of H2O or 6 µL of EtOH, respectively) was dialyzed and used as a control for determination of the initial activity. The experiment was carried out in two replicates. The residual activity was calculated as described above.

As to `COc1cc2ccnc3c2c(c1O)NC=C3` [Compound 3, 9-demethylaaptamine], in data set [1], the “n, Hill's coefficient of cooperativity” value is listed as 0.84; the Ki turned out to be 300 ± 77 µM; the kinact – broadly, the rate constant of inactivation at saturating inhibitor – is 0.00153 s⁻¹. Besides, the “n, Hill's coefficient of cooperativity” value in data set [1] (listed as 9-demethylaaptamine(3)) was found to be 0.84 ± 0.12. For the same compound, the IC50 in the data set on DLD-1 cells (Homo sapiens, DLD-1, 24 h, read-out: concentration that caused a 50% reduction in cell viability (IC50) of DLD-1 cells) was determined as 17 ± 0.2 µM. Also, the “irreversibility of α-PsGal inhibition” value in data set [2] is “irreversibly inactivate”.
Regarding `COc1cc2ccnc3c2c(c1O)N(C)C=C3` [Compound 2, isoaaptamine], in data set [1], the “n, Hill's coefficient of cooperativity” value is 2.17; the Ki turned out to be 2.7 ± 0.42 µM; the kinact was 0.002 s⁻¹. In data set [1] (listed as isoaaptamine (2)), the “n, Hill's coefficient of cooperativity” value came to 2.17 ± 0.55. Further, the “cytotoxicity against DLD-1 cells” value in the data set with DLD-1 cells (24 h, dose up to 20 μM) was “weakly cytotoxic”. For the same compound, the “decrease in cell viability” value in the data set with DLD-1 cells (DLD-1 cells, 24 h, at 20 μM) turned out to be 20%. Further, the “irreversibility of α-PsGal inhibition” value in data set [2] is recorded as “irreversibly inactivate”.
